Measured values published in patent US20120095052A1, “PAR-1 ANTAGONISM IN FED OR ANTACID-DOSED PATIENTS” (priority 2009, published 2012).
Read-outs that look alike come from different tables or passages of the source.

Test: Clinical study of the effect of food and antacid on pharmacokinetics after a single oral 40 mg tablet in healthy subjects
Type: in vivo, human
Settings: for Tmax / Cmax / half-life / AUC: single 40 mg oral tablet; for Tmax: median; for Cmax / half-life / AUC: po, 40 mg, mean
Experimental: and or the bisulfate salt thereof in healthy subjects was studied in a clinical trial. The primary objective of the study was to evaluate the effect of food (standardized high-fat breakfast) and antacid (increased gastric pH) on the pharmacokinetics (PK) of
and or the bisulfate salt thereof administered orally as a 40 mg tablet. A secondary objective was to evaluate the effect of meal timing relative to fasting on the PK of
The study was designed as a randomized, open-label, single-dose, parallel-group, single-center study conducted in healthy young adults in conformance with Good Clinical Practice. Healthy male and female subjects between the ages of 18 and 45 years with a body mass index of 19-32 kg/m^2 were eligible for enrollment. Eligible subjects were randomly assigned to receive a single 40 mg dose of
basis on Days 7, 14, 21, 28, 35, and 42 (±1 day) after dosing. The bioanalytical assay was an LC-MS/MS assay, LLOQ=1.00 ng/mL.

[1] = 40 mg tablet immediately with food vs fasted
[2] = 1 hr after food vs fasted, 40 mg tablet
[3] = 2 hr after food vs fasted, 40 mg tablet
[4] = Fed (immediately with food) vs fasted, 40 mg tablet
[5] = antacid co-administration vs alone, fasted subjects
[6] = fasted subjects, with antacid vs alone, 40 mg tablet

increase of peak plasma concentration (Cmax) [1]: 31% | increase of systemic exposure (AUC[l]) [1]: 43% | Tmax (1 hour after food): 0.083 days | Ratio Estimate Fed vs Fasted, AUC(I) (relative bioavailability) [2]: 143 | Ratio Estimate Fed vs Fasted, Cmax (relative bioavailability) [2]: 117 | Tmax (2 hours after food): 0.083 days | Ratio Estimate Fed vs Fasted, AUC(I) (relative bioavailability) [3]: 127 | Ratio Estimate Fed vs Fasted, Cmax (relative bioavailability) [3]: 137 | Tmax (Fasted with antacid): 0.083 days | Ratio Estimate Fed vs Fasted, AUC(I) (relative bioavailability) [4]: 143 | Ratio Estimate Fed vs Fasted, Cmax (relative bioavailability) [4]: 131 | reduction of peak plasma concentration (Cmax) [5]: 38% | reduction of systemic exposure (AUC[l]) [5]: 15% | Cmax (both sexes, human, plasma, 1 hour after food (high-fat breakfast)): 298 ng/mL | half-life (both sexes, human, plasma, 1 hour after food, n = 9): 12 days | AUC (both sexes, human, plasma, 1 hour after food, n = 9, read-out: AUC(I)): 26800 ng·h/mL | AUC (both sexes, human, plasma, 1 hour after food, read-out: AUC(tf)): 23200 ng·h/mL | Cmax (both sexes, human, plasma, 2 hours after food (high-fat breakfast)): 355 ng/mL | half-life (both sexes, human, plasma, 2 hours after food, n = 9): 10.1 days | AUC (both sexes, human, plasma, 2 hours after food, n = 9, read-out: AUC(I)): 23400 ng·h/mL | AUC (both sexes, human, plasma, 2 hours after food, read-out: AUC(tf)): 22400 ng·h/mL | Cmax (both sexes, human, plasma, Fasted with antacid (20 mL Gaviscon extra-strength liquid)): 165 ng/mL | half-life (both sexes, human, plasma, Fasted with antacid, n = 18): 10.2 days | AUC (both sexes, human, plasma, Fasted with antacid, n = 18, read-out: AUC(I)): 15800 ng·h/mL | AUC (both sexes, human, plasma, Fasted with antacid, read-out: AUC(tf)): 15000 ng·h/mL | Cmax (both sexes, human, plasma, Fasted without antacid (after 10-hour fast), healthy subjects): 262 ng/mL | half-life (both sexes, human, plasma, Fasted without antacid, healthy subjects, n = 19): 10 days | AUC (both sexes, human, plasma, Fasted without antacid, healthy subjects, n = 19, read-out: AUC(I)): 18400 ng·h/mL | AUC (both sexes, human, plasma, Fasted without antacid, healthy subjects, read-out: AUC(tf)): 16800 ng·h/mL | half-life (both sexes, human, plasma, Fed (immediately with food), n = 18): 10.9 days | AUC (both sexes, human, plasma, Fed (immediately with food), n = 18, read-out: AUC(I)): 26600 ng·h/mL | AUC (both sexes, human, plasma, Fed (immediately with food), read-out: AUC(tf)): 22800 ng·h/mL | Cmax (both sexes, human, plasma, Fed (within 5 minutes of completing standardized high-fat breakfast)): 347 ng/mL | Tmax (both sexes, human, plasma, Fed (immediately with food), read-out: Tmax): 0.125 days | Ratio Estimate with vs without Antacid, AUC(I) (relative bioavailability) [6]: 85 | Ratio Estimate with vs without Antacid, Cmax (relative bioavailability) [6]: 62
SMILES: CCOC(=O)N[C@@H]1CC[C@@H]2[C@@H](C1)C[C@H]1C(=O)O[C@H](C)[C@H]1[C@H]2/C=C/c1ccc(-c2cccc(F)c2)cn1 [SCH 530348, ethyl [(R1R,3aR,4aR,6R,8aR,9S,9aS)-9-[(E)-2-[5-(3-fluorophenyl)-2-pyridinyl]ethenyl]-dodecahydro-1-methyl-3-oxonaphtho[2,3-c]furan-6-yl] carbamate]
